# Patent US9079913B2, “Spiro-oxindole MDM2 antagonists” (The Regents of the University of Michigan, priority 2009, dated 2015)
# Read-outs that look alike come from different tables or passages of the source.
# Key:
# [1] = In vitro microsomal stability, rat; type: in vitro ADME; details: for microsomal stability (in words) / % of compound remaining when incubated in rat liver microsomes with NADPH: rat liver microsomes; for Microsomal stability, % remaining: Rat Microsome, same batch; for half-life: rat, liver microsomes, rat liver microsomes with NADPH
# [2] = Pharmacokinetic studies in rats; type: in vivo, rat; details: for oral bioavailability / oral pharmacokinetics in rats (in words): oral dosing
# Protocol: Pharmacokinetic studies on MDM2 inhibitors were carried out in rat. For comparison, the MDM2 inhibitor, AT-219, was also studied.
# [3] = target: recombinant human His-tagged MDM2 protein (residues 1-118) (Homo sapiens (Human), UniProt Q00987); assay: Fluorescence-polarization MDM2 binding assay; details: Table 19A; FP binding assay; read-out: MDM2 IC50;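 further: fluorescence polarization read after three hours of incubation in potassium phosphate buffer containing bovine gamma globulin and Triton X-100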
# [4] = test system: Isogenic HCT-116 colon cancer cell lines; assay: cells; type: cell-based; details: Homo sapiens, cell growth;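 further: cells grown in 96-well plates in McCoy's 5A medium with 10% FBS, exposed to compound for 4 days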
# Protocol: Cells were seeded in 96-well flat bottom cell culture plates at a density of 2−3×10^3 cells/well with compounds and incubated for 4 days.
# [5] = test system: cancer cell lines with wild-type p53 / mutated or deleted p53 (ATCC); assay: Cell growth assay (WST-8), other cancer cell lines; type: cell-based; details: Homo sapiens
# [6] = In vitro microsomal stability, human; type: in vitro ADME; details: for Microsomal stability, % remaining: Human Microsome, same batch; for half-life: human, liver microsomes, human liver microsomes with NADPH
# [7] = HCT-116, read-out: HCT-116 (p53-/-) IC50, Table 19A, HCT-116 p53-/-
# [8] = HCT-116, read-out: HCT-116 (p53 wild-type) IC50, Table 19A, HCT-116 p53 wild-type
# [9] = LNCaP, Table 19A, LNCAP cells, p53 wild-type, cell growth, read-out: LNCAP (p53 wild-type) IC50
# [10] = PC-3, Table 19A, PC-3 cells, deleted p53, cell growth, read-out: PC-3 (deleted p53) IC50
# [11] = rat, plasma, male rats, oral dose 15 mg/kg
# [12] = rat, plasma, male rats, oral dose 15 mg/kg, read-out: AUC(0-t)
# [13] = rat, plasma, male rats, oral dose 15 mg/kg, read-out: Cmax
# recombinant human His-tagged MDM2 protein (residues 1-118), sequence (Q00987 1-118): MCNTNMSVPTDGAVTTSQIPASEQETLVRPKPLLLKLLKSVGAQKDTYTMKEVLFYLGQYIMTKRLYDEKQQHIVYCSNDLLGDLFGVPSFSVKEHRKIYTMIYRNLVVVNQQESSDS
structure (smiles),measurement,setting,value
CC(C)(C)C[C@H]1N[C@@H](C(=O)NCCC2CCC(O)C2)[C@H](c2cccc(Cl)c2)[C@@]12C(=O)Nc1cc(Cl)c(F)cc12 (some centres unmarked) [MI-225],% of compound remaining when incubated in rat liver microsomes,"[1]; Table 16, 0 min",100%
same,% of compound remaining when incubated in rat liver microsomes,"[1]; Table 16, 4 min",63.1%
same,% of compound remaining when incubated in rat liver microsomes,"[1]; Table 16, 6 min",56.6%
same,% of compound remaining when incubated in rat liver microsomes,"[1]; Table 16, 10 min",44.4%
same,% of compound remaining when incubated in rat liver microsomes,"[1]; Table 16, 15 min",30.9%
same,% of compound remaining when incubated in rat liver microsomes,"[1]; Table 16, 30 min",30.2%
same,microsomal stability (in words),[1],inferior microsomal stability to MI-219
same,% F,"[2]; male rats, oral dose 25 mg/kg",44%
same,AUC(0-t),"[2]; male rats, oral dose 25 mg/kg",7207 ± 1492
same,Cmax,"[2]; male rats, oral dose 25 mg/kg",1913 ± 312 ng/mL
same,T1/2,"[2]; male rats, oral dose 25 mg/kg",1.51 ± 0.12 h
same,oral bioavailability / oral pharmacokinetics in rats (in words),[2],good oral bioavailability
CC(C)(C)C[C@H]1N[C@@H](C(=O)NCC[C@H](O)CNC(C)(C)C)[C@H](c2cccc(Cl)c2)[C@@]12C(=O)Nc1cc(Cl)c(F)cc12 [MI-519-24],IC50,[3],< 2 µM
same,IC50,[4]; [7],6.5 ± 0.7 µM
same,IC50,[4]; [8],< 2 µM
same,IC50,[5]; [9],< 3 µM
same,IC50,[5]; [10],3.7 ± 0.2 µM
same,"Microsomal stability, % remaining",[1]; 0 min,100.00%
same,"Microsomal stability, % remaining",[1]; 5 min,102.16%
same,"Microsomal stability, % remaining",[1]; 10 min,86.33%
same,"Microsomal stability, % remaining",[1]; 15 min,75.72%
same,"Microsomal stability, % remaining",[1]; 30 min,68.24%
same,"Microsomal stability, % remaining",[1]; 45 min,66.08%
same,"Microsomal stability, % remaining",[1]; 60 min,61.51%
same,microsomal stability (in words),[1],improved stability over MI-219
same,% of compound remaining when incubated in rat liver microsomes with NADPH,[1]; 0 min,100.00%
same,% of compound remaining when incubated in rat liver microsomes with NADPH,[1]; 5 min,102.16%
same,% of compound remaining when incubated in rat liver microsomes with NADPH,[1]; 10 min,86.33%
same,% of compound remaining when incubated in rat liver microsomes with NADPH,[1]; 15 min,75.72%
same,% of compound remaining when incubated in rat liver microsomes with NADPH,[1]; 30 min,68.24%
same,% of compound remaining when incubated in rat liver microsomes with NADPH,[1]; 45 min,66.08%
same,% of compound remaining when incubated in rat liver microsomes with NADPH,[1]; 60 min,61.51%
same,half-life,[1],0.809 h
same,"Microsomal stability, % remaining",[6]; 0 min,100.00%
same,"Microsomal stability, % remaining",[6]; 5 min,57.08%
same,"Microsomal stability, % remaining",[6]; 10 min,53.92%
same,"Microsomal stability, % remaining",[6]; 15 min,49.62%
same,"Microsomal stability, % remaining",[6]; 30 min,47.41%
same,"Microsomal stability, % remaining",[6]; 45 min,41.18%
same,"Microsomal stability, % remaining",[6]; 60 min,41.42%
same,% of compound remaining when incubated in human liver microsomes with NADPH,"[6]; human liver microsomes, 0 min",100.00%
same,% of compound remaining when incubated in human liver microsomes with NADPH,"[6]; human liver microsomes, 5 min",57.08%
same,% of compound remaining when incubated in human liver microsomes with NADPH,"[6]; human liver microsomes, 10 min",53.92%
same,% of compound remaining when incubated in human liver microsomes with NADPH,"[6]; human liver microsomes, 15 min",49.62%
same,% of compound remaining when incubated in human liver microsomes with NADPH,"[6]; human liver microsomes, 30 min",47.41%
same,% of compound remaining when incubated in human liver microsomes with NADPH,"[6]; human liver microsomes, 45 min",41.18%
same,% of compound remaining when incubated in human liver microsomes with NADPH,"[6]; human liver microsomes, 60 min",41.42%
same,half-life,[6],0.187 h
same,oral bioavailability / oral pharmacokinetics in rats (in words),[2],much inferior oral pharmacokinetic parameters
same,bioavailability,[2]; [11],1.1%
same,half-life,[2]; [11],3.2 ± 1.4 h
same,AUC(0-t),[2]; [12],101 ± 62 µg·h/mL
same,Cmax,[2]; [13],35 ± 23 ng/mL
CC(C)(C)C[C@H]1N[C@@H](C(=O)NCC[C@H](O)CN2CCCC2)[C@H](c2cccc(Cl)c2)[C@@]12C(=O)Nc1cc(Cl)c(F)cc12 [MI-519-28],IC50,[3],< 2 µM
same,IC50,[4]; [7],> 5 µM
same,IC50,[4]; [8],< 2 µM
same,IC50,[5]; [9],< 2 µM
same,IC50,[5]; [10],4.1 ± 0.2 µM
same,"Microsomal stability, % remaining",[1]; 0 min,100.00%
same,"Microsomal stability, % remaining",[1]; 5 min,92.34%
same,"Microsomal stability, % remaining",[1]; 10 min,87.59%
same,"Microsomal stability, % remaining",[1]; 15 min,86.13%
same,"Microsomal stability, % remaining",[1]; 30 min,71.97%
same,"Microsomal stability, % remaining",[1]; 45 min,65.40%
same,"Microsomal stability, % remaining",[1]; 60 min,61.79%
same,microsomal stability (in words),[1],improved stability over MI-219
same,% of compound remaining when incubated in rat liver microsomes with NADPH,[1]; 0 min,100.00%
same,% of compound remaining when incubated in rat liver microsomes with NADPH,[1]; 5 min,92.34%
same,% of compound remaining when incubated in rat liver microsomes with NADPH,[1]; 10 min,87.59%
same,% of compound remaining when incubated in rat liver microsomes with NADPH,[1]; 15 min,86.13%
same,% of compound remaining when incubated in rat liver microsomes with NADPH,[1]; 30 min,71.97%
same,% of compound remaining when incubated in rat liver microsomes with NADPH,[1]; 45 min,65.40%
same,% of compound remaining when incubated in rat liver microsomes with NADPH,[1]; 60 min,61.79%
same,half-life,[1],1.24 h
same,"Microsomal stability, % remaining",[6]; 0 min,100.00%
same,"Microsomal stability, % remaining",[6]; 5 min,91.87%
same,"Microsomal stability, % remaining",[6]; 10 min,89.02%
same,"Microsomal stability, % remaining",[6]; 15 min,77.40%
same,"Microsomal stability, % remaining",[6]; 30 min,66.83%
same,"Microsomal stability, % remaining",[6]; 45 min,55.85%
same,"Microsomal stability, % remaining",[6]; 60 min,53.78%
same,microsomal stability (in words),[6]; human liver microsomes,improved stability over MI-219
same,% of compound remaining when incubated in human liver microsomes with NADPH,"[6]; human liver microsomes, 0 min",100.00%
same,% of compound remaining when incubated in human liver microsomes with NADPH,"[6]; human liver microsomes, 5 min",91.87%
same,% of compound remaining when incubated in human liver microsomes with NADPH,"[6]; human liver microsomes, 10 min",89.02%
same,% of compound remaining when incubated in human liver microsomes with NADPH,"[6]; human liver microsomes, 15 min",77.40%
same,% of compound remaining when incubated in human liver microsomes with NADPH,"[6]; human liver microsomes, 30 min",66.83%
same,% of compound remaining when incubated in human liver microsomes with NADPH,"[6]; human liver microsomes, 45 min",55.85%
same,% of compound remaining when incubated in human liver microsomes with NADPH,"[6]; human liver microsomes, 60 min",53.78%
same,half-life,[6],0.902 h
same,oral bioavailability / oral pharmacokinetics in rats (in words),[2],much inferior oral pharmacokinetic parameters
same,bioavailability,[2]; [11],8.4%
same,half-life,[2]; [11],1.6 ± 0.2 h
same,AUC(0-t),[2]; [12],419 ± 239 µg·h/mL
same,Cmax,[2]; [13],102 ± 46 ng/mL
